Source: patent US20260207602A1, “EGFR INHIBITORS” (Blueprint Medicines Corporation, priority 2022, published 2026)
pIC50: −log10 of the molar value.

Key:
[1] = biological target: T1, EGFR (d746-750) (Homo sapiens, UniProt P00533, DEL746-750); test: Biochemical EGFR inhibition assay (Caliper mobility shift), EGFR (d746-750); details: biochemical Caliper mobility shift assay, EGFR Exon 19-del enzyme; read-out: Enz EGFR Exon 19-del IC50
T1 construct: purchased SignalChem E10-122JG
Outline: (§1)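 Kinase activity measured as phosphorylation of 2.5 µM 5-FAM-labelled peptide substrate in 100 mM HEPES pH 7.5, 10 mM MgCl2, 0.015% Brij-35, 1 mM DTT, 1.0% DMSO, at 1.0 mM ATP or ATP Km. Run at 25 °C to 10–20% conversion, stopped with EDTA; product resolved by mobility shift, apparent IC50 from percent activity vs log concentration.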

[2] = biological target: T2, EGFR L858R (Homo sapiens, UniProt P00533, L858R); test: Biochemical EGFR inhibition assay (Caliper mobility shift), EGFR L858R; details: biochemical Caliper mobility shift assay, EGFR L858R enzyme; read-out: Enz EGFR L858R IC50
T2 construct: purchased SignalChem E10-122BG
T2 sequence (P00533 25-1210 L858R): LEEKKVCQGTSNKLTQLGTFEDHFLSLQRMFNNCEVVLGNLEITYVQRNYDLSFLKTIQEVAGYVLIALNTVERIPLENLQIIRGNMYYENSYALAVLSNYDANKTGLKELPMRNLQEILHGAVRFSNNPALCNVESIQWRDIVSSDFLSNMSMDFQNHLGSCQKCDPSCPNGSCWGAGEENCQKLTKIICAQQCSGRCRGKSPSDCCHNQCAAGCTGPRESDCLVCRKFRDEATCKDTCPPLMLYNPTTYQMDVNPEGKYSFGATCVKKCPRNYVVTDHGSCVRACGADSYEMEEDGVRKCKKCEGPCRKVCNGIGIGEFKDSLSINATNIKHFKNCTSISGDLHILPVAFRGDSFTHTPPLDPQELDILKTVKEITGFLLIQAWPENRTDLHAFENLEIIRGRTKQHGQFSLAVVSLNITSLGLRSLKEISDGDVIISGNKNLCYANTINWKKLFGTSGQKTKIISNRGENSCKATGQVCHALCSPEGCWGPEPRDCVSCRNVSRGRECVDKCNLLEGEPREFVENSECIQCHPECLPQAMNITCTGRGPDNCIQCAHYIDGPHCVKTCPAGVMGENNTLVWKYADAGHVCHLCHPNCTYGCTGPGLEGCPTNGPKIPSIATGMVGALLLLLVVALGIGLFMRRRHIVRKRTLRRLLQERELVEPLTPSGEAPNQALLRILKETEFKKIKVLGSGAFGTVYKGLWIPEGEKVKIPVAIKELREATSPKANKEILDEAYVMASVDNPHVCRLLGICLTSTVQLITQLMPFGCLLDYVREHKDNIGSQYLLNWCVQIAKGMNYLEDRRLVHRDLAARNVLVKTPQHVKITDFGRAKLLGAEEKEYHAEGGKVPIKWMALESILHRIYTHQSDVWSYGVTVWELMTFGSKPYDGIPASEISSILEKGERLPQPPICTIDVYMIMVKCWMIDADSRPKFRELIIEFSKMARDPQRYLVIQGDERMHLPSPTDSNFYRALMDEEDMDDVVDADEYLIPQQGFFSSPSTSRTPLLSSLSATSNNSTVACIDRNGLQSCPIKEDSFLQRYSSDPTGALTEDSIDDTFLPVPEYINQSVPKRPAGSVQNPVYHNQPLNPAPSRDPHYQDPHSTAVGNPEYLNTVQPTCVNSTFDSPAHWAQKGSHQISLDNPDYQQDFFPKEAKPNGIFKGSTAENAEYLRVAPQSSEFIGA
Outline: as §1

[3] = biological target: intracellular phosphorylation of EGFR (Tyr1068) in PC-9 cells (Homo sapiens, UniProt P00533, DEL746-750); test: PC-9 pEGFR AlphaLISA assay; format: cell-based; details: 4 hours incubation, read-out: Phos EGFR PC9 IC50
Chain of intracellular phosphorylation of EGFR (Tyr1068) in PC-9 cells (P00533 with tags, fused parts or gaps DEL746-750): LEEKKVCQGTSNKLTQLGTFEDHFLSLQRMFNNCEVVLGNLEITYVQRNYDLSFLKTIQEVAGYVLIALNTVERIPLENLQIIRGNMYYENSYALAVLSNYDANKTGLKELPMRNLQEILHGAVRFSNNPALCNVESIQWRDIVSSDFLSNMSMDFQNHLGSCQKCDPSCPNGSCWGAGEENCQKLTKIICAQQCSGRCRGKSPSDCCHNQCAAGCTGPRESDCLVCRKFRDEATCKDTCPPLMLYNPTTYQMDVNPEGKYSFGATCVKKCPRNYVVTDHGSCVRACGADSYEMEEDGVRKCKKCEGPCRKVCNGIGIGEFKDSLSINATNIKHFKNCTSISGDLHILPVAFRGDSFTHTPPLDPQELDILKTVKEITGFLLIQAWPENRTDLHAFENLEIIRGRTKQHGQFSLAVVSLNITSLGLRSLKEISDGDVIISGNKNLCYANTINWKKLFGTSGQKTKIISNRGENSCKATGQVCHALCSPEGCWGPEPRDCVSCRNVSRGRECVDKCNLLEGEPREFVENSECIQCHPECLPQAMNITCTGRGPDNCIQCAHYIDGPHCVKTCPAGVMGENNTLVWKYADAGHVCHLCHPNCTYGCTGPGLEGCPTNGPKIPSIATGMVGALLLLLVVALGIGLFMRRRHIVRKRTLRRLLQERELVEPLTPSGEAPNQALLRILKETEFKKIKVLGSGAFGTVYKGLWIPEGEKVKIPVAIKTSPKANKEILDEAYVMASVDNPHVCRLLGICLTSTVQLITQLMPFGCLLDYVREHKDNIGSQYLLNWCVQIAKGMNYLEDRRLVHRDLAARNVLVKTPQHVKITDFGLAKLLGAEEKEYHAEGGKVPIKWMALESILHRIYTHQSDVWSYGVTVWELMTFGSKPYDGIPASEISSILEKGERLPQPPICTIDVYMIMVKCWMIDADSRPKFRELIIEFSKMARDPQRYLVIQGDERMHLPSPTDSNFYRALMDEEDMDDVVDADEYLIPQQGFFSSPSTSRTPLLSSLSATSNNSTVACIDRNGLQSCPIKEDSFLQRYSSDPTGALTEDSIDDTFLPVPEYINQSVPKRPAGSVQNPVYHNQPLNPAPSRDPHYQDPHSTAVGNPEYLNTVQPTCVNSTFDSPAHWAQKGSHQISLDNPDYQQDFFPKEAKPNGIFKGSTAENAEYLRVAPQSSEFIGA
Outline: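 PC-9 cells (EGFR del746-750) in phenol-free DMEM/10% FBS, adhered overnight, then exposed to 10-point 4-fold compound dilutions for 4 h at 37 °C. Lysates assayed for pEGFR Tyr1068 by AlphaLISA SureFire Ultra; IC50 from percent pEGFR inhibition vs log concentration.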

T1 sequence (P00533 with tags, fused parts or gaps DEL746-750 limits assumed): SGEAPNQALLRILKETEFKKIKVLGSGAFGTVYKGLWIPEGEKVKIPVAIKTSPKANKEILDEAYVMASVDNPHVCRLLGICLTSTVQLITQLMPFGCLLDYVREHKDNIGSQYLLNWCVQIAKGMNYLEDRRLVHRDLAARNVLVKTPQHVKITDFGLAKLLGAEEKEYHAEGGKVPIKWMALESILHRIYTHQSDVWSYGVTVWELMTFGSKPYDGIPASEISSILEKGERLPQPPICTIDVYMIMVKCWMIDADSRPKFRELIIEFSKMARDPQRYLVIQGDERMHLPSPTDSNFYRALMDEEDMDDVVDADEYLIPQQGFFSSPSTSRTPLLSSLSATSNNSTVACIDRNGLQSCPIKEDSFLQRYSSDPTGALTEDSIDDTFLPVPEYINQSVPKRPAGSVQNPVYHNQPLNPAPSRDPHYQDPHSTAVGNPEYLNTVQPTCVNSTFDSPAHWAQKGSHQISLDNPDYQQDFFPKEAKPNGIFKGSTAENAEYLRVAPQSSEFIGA

SMILES | pIC50 [1] | pIC50 [2] | pIC50 [3]
Cn1cc(-c2cc3ncnc(Nc4ccc5ncsc5c4F)c3cc2OC2CCOC2)cn1 (stereo not drawn) [Example 261, 7-fluoro-N-(7-(1-methyl-1H-pyrazol-4-yl)-6-((tetrahydrofuran-3-yl)oxy)quinazolin-4-yl)benzo[d]thiazol-6-amine] | ≥ 8.00 | ≥ 8.00 | ≥ 8.00
COc1cc(O[C@H](C)C2COC2)c2c(Nc3ccc4ncsc4c3F)ncnc2c1 (single isomer, unassigned) [Example 82] | ≥ 8.00 | ≥ 8.00 | 7.30 to 8.00
COc1nn(C)cc1-c1cc(O[C@@H]2CN(C)C[C@H]2F)c2c(Nc3ccc4ncsc4c3)ncnc2c1 (racemic) [Example 376, N-(5-(((3S,4S)-4-fluoro-1-methylpyrrolidin-3-yl)oxy)-7-(3-methoxy-1-methyl-1H-pyrazol-4-yl)quinazolin-4-yl)benzo[d]thiazol-6-amine and N-(5-(((3R,4R)-4-fluoro-1-methylpyrrolidin-3-yl)oxy)-7-(3-methoxy-1-methyl-1H-pyrazol-4-yl)quinazolin-4-yl)benzo[d]thiazol-6-amine] | ≥ 8.00 | ≥ 8.00 | 7.30 to 8.00
CC(C)N1CCN(c2cc(OC3CCOCC3)c3c(Nc4ccc5ncsc5c4)ncnc3c2)C1=O [Example 194, 1-(4-(benzo[d]thiazol-6-ylamino)-5-((tetrahydro-2H-pyran-4-yl)oxy)quinazolin-7-yl)-3-isopropylimidazolidin-2-one] | ≥ 8.00 | ≥ 8.00 | ≥ 8.00
CC(Oc1cc(-c2cnn(C)c2)cc2ncnc(Nc3ccc4ncsc4c3F)c12)C(=O)N1CCOCC1 (stereo not drawn) [Example 281, 2-((4-((7-fluorobenzo[d]thiazol-6-yl)amino)-7-(1-methyl-1H-pyrazol-4-yl)quinazolin-5-yl)oxy)-1-morpholinopropan-1-one] | ≥ 8.00 | ≥ 8.00 | ≥ 8.00
CCN1CCN(C(=O)Nc2cc3c(Nc4ccc5ncsc5c4F)ncnc3cc2-c2ccn(C)n2)[C@@H](C)C1 [Example 398, (S)-4-ethyl-N-(4-((7-fluorobenzo[d]thiazol-6-yl)amino)-7-(1-methyl-1H-pyrazol-3-yl)quinazolin-6-yl)-2-methylpiperazine-1-carboxamide] | ≥ 8.00 | ≥ 8.00 | ≥ 8.00
Cn1cc(-c2cc3ncnc(Nc4ccc5ncsc5c4F)c3cc2OC2CCOCC2)cn1 [Example 262, 7-fluoro-N-(7-(1-methyl-1H-pyrazol-4-yl)-6-((tetrahydro-2H-pyran-4-yl)oxy)quinazolin-4-yl)benzo[d]thiazol-6-amine] | ≥ 8.00 | ≥ 8.00 | ≥ 8.00
CN1CC[C@H](Oc2cc(-c3cnn(C)c3)cc3ncnc(Nc4ccc5ncsc5c4)c23)C1 [Example 34, (S)-N-(7-(1-methyl-1H-pyrazol-4-yl)-5-((1-methylpyrrolidin-3-yl)oxy)quinazolin-4-yl)benzo[d]thiazol-6-amine] | ≥ 8.00 | 7.30 to 8.00 | 7.30 to 8.00
COc1cc2ncnc(Nc3ccc4ncsc4c3)c2cc1-c1cnn([C@H]2CCN(C)C[C@@H]2F)c1 (racemic) [Example 169, trans-N-(6-(1-((3S,4S)-3-fluoro-1-methylpiperidin-4-yl)-1H-pyrazol-4-yl)-7-methoxyquinazolin-4-yl)benzo[d]thiazol-6-amine] | ≥ 8.00 | ≥ 8.00 | 7.30 to 8.00
CN(C)C(=O)COc1cc(-c2cnn(C)c2)cc2ncnc(Nc3ccc4ncsc4c3F)c12 [Example 274, 2-((4-((7-fluorobenzo[d]thiazol-6-yl)amino)-7-(1-methyl-1H-pyrazol-4-yl)quinazolin-5-yl)oxy)-N,N-dimethylacetamide] | ≥ 8.00 | ≥ 8.00 | ≥ 8.00
COc1cn(C)nc1-c1cc(O[C@H](C)C2COC2)c2c(Nc3ccc4ncsc4c3F)ncnc2c1 (single isomer, unassigned) [Example 80] | ≥ 8.00 | ≥ 8.00 | ≥ 8.00
C[C@@H](Oc1cc(-c2cnn(C)c2)cc2ncnc(Nc3ccc4ncsc4c3F)c12)C1(C)COC1 (single isomer, unassigned) [Example 86] | ≥ 8.00 | ≥ 8.00 | ≥ 8.00
COc1cc2ncnc(Nc3ccc4ncsc4c3)c2cc1N[C@H]1CCN(C)C[C@@H]1F [Example 393, N4-(benzo[d]thiazol-6-yl)-N6-((3S,4S)-3-fluoro-1-methylpiperidin-4-yl)-7-methoxyquinazoline-4,6-diamine] | ≥ 8.00 | ≥ 8.00 | ≥ 8.00
CN1CC[C@@H](F)[C@@H](Oc2cc(-c3cnn(C)c3)cc3ncnc(Nc4ccc5ncsc5c4)c23)C1 (single isomer, unassigned) [Example 162] | ≥ 8.00 | ≥ 8.00 | 7.30 to 8.00
COC[C@H](C)Oc1cc(N2CCN(C(C)C)C2=O)cc2ncnc(Nc3ccc4ncsc4c3)c12 (single isomer, unassigned) [Example 118] | ≥ 8.00 | ≥ 8.00 | ≥ 8.00
COc1nn(C)cc1-c1cc(OC2CCN(C)CC2(F)F)c2c(Nc3ccc4ncsc4c3)ncnc2c1 (stereo not drawn) [Example 1, N-(5-((3,3-difluoro-1-methylpiperidin-4-yl)oxy)-7-(3-methoxy-1-methyl-1H-pyrazol-4-yl)quinazolin-4-yl)benzo[d]thiazol-6-amine] | ≥ 8.00 | ≥ 8.00 | ≥ 8.00
C[C@H](Oc1cc(-c2cnn(C)c2)cc2ncnc(Nc3ccc4ncsc4c3F)c12)C(=O)N1CCOCC1 (single isomer, unassigned) [Example 282] | ≥ 8.00 | ≥ 8.00 | ≥ 8.00
COC[C@@H](C)Oc1cc(N2CCN(C)C[C@H]2C)cc2ncnc(Nc3ccc4ncsc4c3)c12 (single isomer, unassigned) [Example 211] | 7.30 to 8.00 | < 7.30 | < 7.30
COc1cc2ncnc(Nc3ccc4ncsc4c3F)c2cc1-c1cnn(C2CCN(C)CC2)c1 [Example 240, 7-fluoro-N-(7-methoxy-6-(1-(1-methylpiperidin-4-yl)-1H-pyrazol-4-yl)quinazolin-4-yl)benzo[d]thiazol-6-amine] | ≥ 8.00 | ≥ 8.00 | ≥ 8.00
Cn1cc(-c2cc(OC3CCN(CCO)CC3)c3c(Nc4ccc5ncsc5c4)ncnc3c2)cn1 [Example 312, 2-(4-((4-(benzo[d]thiazol-6-ylamino)-7-(1-methyl-1H-pyrazol-4-yl)quinazolin-5-yl)oxy)piperidin-1-yl)ethan-1-ol] | ≥ 8.00 | ≥ 8.00 | 7.30 to 8.00
C[C@H](Oc1cc(N2CCN(C)C2=O)cc2ncnc(Nc3ccc4ncsc4c3)c12)C1COC1 (single isomer, unassigned) [Example 158] | ≥ 8.00 | ≥ 8.00 | 7.30 to 8.00
COc1nn(C)cc1-c1cc(O[C@@H](C)C(=O)N(C)C)c2c(Nc3ccc4ncsc4c3F)ncnc2c1 (single isomer, unassigned) [Example 287] | ≥ 8.00 | ≥ 8.00 | ≥ 8.00
C[C@H](CN(C)C)Oc1cc(N2CC[C@@H](C(C)(C)O)C2)cc2ncnc(Nc3ccc4ncsc4c3)c12 (single isomer, unassigned) [Example 155] | ≥ 8.00 | ≥ 8.00 | ≥ 8.00
Cn1cc(-c2cc(OCCN3CCC3)c3c(Nc4ccc5ncsc5c4)ncnc3c2)cn1 [Example 409, N-(5-(2-(azetidin-1-yl)ethoxy)-7-(1-methyl-1H-pyrazol-4-yl)quinazolin-4-yl)benzo[d]thiazol-6-amine] | ≥ 8.00 | 7.30 to 8.00 | 7.30 to 8.00
COc1cc2ncnc(Nc3ccc4ncsc4c3)c2cc1NC(=O)N1C[C@H]2CCN(C)[C@H]2C1 [Example 251, (3aR,6aR)-N-(4-(benzo[d]thiazol-6-ylamino)-7-methoxyquinazolin-6-yl)-1-methylhexahydropyrrolo[3,4-b]pyrrole-5(1H)-carboxamide] | ≥ 8.00 | ≥ 8.00 | 7.30 to 8.00
C[C@@H]1CN(c2cc(O[C@H](C)C3COC3)c3c(Nc4ccc5ncsc5c4F)ncnc3c2)CCN1 (single isomer, unassigned) [Example 101] | 7.30 to 8.00 | 7.30 to 8.00 | 7.30 to 8.00
Cn1cc(-c2cc(O[C@@H]3CNC[C@H](F)C3)c3c(Nc4ccc5ncsc5c4)ncnc3c2)cn1 (racemic) [Example 329, cis-N-(5-(((3S,5R)-5-fluoropiperidin-3-yl)oxy)-7-(1-methyl-1H-pyrazol-4-yl)quinazolin-4-yl)benzo[d]thiazol-6-amine] | ≥ 8.00 | ≥ 8.00 | ≥ 8.00
CCn1cc(-c2cc(OC3CCN(C4COC4)CC3)c3c(Nc4ccc5ncsc5c4)ncnc3c2)cn1 [Example 307, N-(7-(1-ethyl-1H-pyrazol-4-yl)-5-((1-(oxetan-3-yl)piperidin-4-yl)oxy)quinazolin-4-yl)benzo[d]thiazol-6-amine] | ≥ 8.00 | ≥ 8.00 | ≥ 8.00
COC[C@H](C)Oc1cc(N2CCN(C)CC2)cc2ncnc(Nc3ccc4ncsc4c3)c12 (single isomer, unassigned) [Example 205] | ≥ 8.00 | ≥ 8.00 | 7.30 to 8.00
